Reference: patent US8735387B2, “Oxazolopyrimidines as Edg-1 receptor agonists” (Sanofi, priority 2008, dated 2014)

Each compound was assayed against T1, human Edg-1 receptor (Homo sapiens, UniProt P21453) (assay: GTP-γ-S assay using human Edg-1 receptors (scintillation proximity assay, membrane preparation from CHO Flp-In cell line)). Details: example compound at 10 μM; relative to 10 μM S1P; GTP-γ-S SPA, human Edg-1 membranes.
T1 construct: expressed in transfected cells; membrane preparation
Format: biochemical
Excerpt: Determination of the Pharmacological Activity A) GTP-γ-S Assay Using Human Edg-1 Receptors
In order to determine the Edg-1 receptor activation by the compounds of the invention, a GTP-γ-S (guanosine 5′-[γ-thio]triphosphate) assay for G-protein coupled receptor binding based on the scintillation proximity assay principle was used, employing a cell membrane preparation from a CHO Flp-In cell line which constitutively overexpresses the human Edg-1 receptor.
The Flp-In™ expression system (Invitrogen, cat. no. K6010-01) allows the generation of stable mammalian cell lines into which the gene of interest has been integrated through homologous recombination at a specific genomic location called Flp Recombination Target (FRT) site by means of a Flp recombinase encoded by the pOG44 expression plasmid. The integration of the pcDNA5/FRT expression construct into the Flp-In host cell line genome results in the transcription of the gene of interest. The stably transfected cells become hygromycin-resistant.
One day prior to transfection, 200 000 Flp-In-CHO cells were seeded in Ham F-12 medium (Invitrogen, cat. no. 31765) supplemented with 10% fetal calf serum (FCS; Perbio Science, cat. no. SH30068.03) in a 6-well plate and incubated at 37° C./5% CO2 overnight. Using the FuGENE® 6 transfection reagent (Roche, cat. no. 11988387001), cells were cotransfected with the Flp recombinase expression plasmid pOG44 and a modified plasmid additionally containing the edg-1 gene (accession no. NM_001400) termed as pcDNA5-FRT-TO_nFLAG_DEST-EDG-1 with a 9:1 ratio. To obtain the modified pcDNA5-FRT-TO_nFLAG_DEST plasmid, the Invitrogen plasmid pcDNA5/FRT/TO (Invitrogen, cat. no. V6520-20) was adapted to the Gateway® (Invitrogen) cloning system by inserting a Gateway cassette containing attR recombination sites flanking a ccdB gene and a chloramphenicol-resistance gene (Gateway conversion system, Invitrogen, cat. no. 11828-029). In addition a FLAG tag epitope was added before the 5′ att recombination site to allow recombinant expression of N-terminally FLAG-tagged proteins.
For the transfection of one well, 1.08 μg of pOG44 and 0.12 μg of pcDNA5-FRT-TO_nFLAG_DEST-EDG-1 were mixed to 100 μl of serum-free Ham F-12 medium containing 6 μl of FuGENE® 6 transfection reagent. After 20 min of incubation, the transfection reagent/DNA complex was distributed dropwise on the cells. The cells were incubated for 24 h at 37° C. Then the cells from 3 wells each were transferred to a T75 flask (Greiner Cellstar®, cat. no. 658175) containing Ham F-12 medium supplemented with 10% of FCS but without antibiotic and were incubated another 24 h. 48 h after transfection, the medium was replaced by selection medium (Ham F-12 supplemented with 10% of FCS and 300 μg/ml of hygromycin B (Invitrogen, cat. no. 10687-010)). The medium was exchanged every 2 to 3 days until a resistant population of cells had grown. […] After 2 weeks of selection, the cells were transferred into T175 flasks (Greiner Cellstar®, cat. no. 660175) and cultivated for batch production. Cells were harvested from the culture flasks by short treatment (2 to 5 min) with Accutase (PAA, cat. no. L11-007), resuspended in selection medium (see above) and centrifuged at 200×g for 5 min. Cells were resuspended in a mixture of 90% of FCS and 10% of dimethylsulfoxide and stored frozen in liquid nitrogen.
A membrane preparation was obtained by standard methods from the afore-described CHO Flp-In cell line constitutively overexpressing the human Edg-1 receptor. Briefly, the cryopreserved cells were taken in culture and grown until confluency in T175 cell culture flasks (Becton Dickinson, cat. no. 35 5001). […]

T1 sequence (P21453 whole entry): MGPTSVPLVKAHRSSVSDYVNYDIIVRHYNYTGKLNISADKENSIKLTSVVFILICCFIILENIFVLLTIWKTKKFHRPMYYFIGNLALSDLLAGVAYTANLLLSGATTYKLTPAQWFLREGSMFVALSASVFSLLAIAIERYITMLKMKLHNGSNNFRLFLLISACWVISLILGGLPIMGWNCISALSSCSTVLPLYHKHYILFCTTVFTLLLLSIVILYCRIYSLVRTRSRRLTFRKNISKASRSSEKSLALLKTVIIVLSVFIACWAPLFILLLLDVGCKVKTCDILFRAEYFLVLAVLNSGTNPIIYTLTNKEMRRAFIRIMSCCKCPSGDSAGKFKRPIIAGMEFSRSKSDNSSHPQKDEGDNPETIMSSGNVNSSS

SMILES | % Activation (Edg-1 receptor activation in percent of the activation by 10 μM S1P)
CCCOc1nc(CN2CCC(F)(F)CC2)nc2oc(-c3ccc(OC)c(F)c3)nc12 [Example 93] | 103%
CCCOc1nc(Cn2ncnc2C)nc2oc(-c3cccc(F)c3)nc12 [Example 155] | 87%
CCCOc1nc(CN2CCC(F)CC2)nc2oc(-c3cccc(F)c3)nc12 [Example 70] | 113%
CCCOc1nc(CN2CCN(S(C)(=O)=O)CC2)nc2oc(-c3cccc(F)c3)nc12 [Example 55] | 22%
Clc1ccc(Cc2nc(OC3CCCC3)c3nc(-c4ccco4)oc3n2)cc1 [Example 110] | 61%
CCCOc1nc(CN2CCOCC2)nc2oc(-c3ccc(F)c(F)c3)nc12 [Example 66] | 107%
CCCOc1nc(Cc2ccc(Cl)cc2)nc2oc(-c3cccc(C)c3F)nc12 [Example 171] | 115%
CCCOc1nc(CN2CCOC[C@@H]2CO)nc2oc(-c3cccc(F)c3)nc12 [Example 185] | 97%
CCCOc1nc(CN2CCC(F)(F)CC2)nc2oc(-c3ccco3)nc12 [Example 96] | 121%
CCCOc1nc(CN2CC[C@H](F)C2)nc2oc(-c3cccc(F)c3)nc12 [Example 202] | 109%
CCCOc1nc(Cc2ccc(Cl)cc2)nc2oc(-c3cccs3)nc12 [Example 103] | 85%
CCCOc1nc(CN2CCC(O)C2)nc2oc(-c3cccc(F)c3)nc12 (stereo not drawn) [Example 181] | 58%
C=C(C)COc1nc(Cc2ccc(Cl)cc2)nc2oc(-c3cccnc3)nc12 [Example 124] | 94%
CCCOc1nc(Cn2cc(C)cn2)nc2oc(-c3cccc(F)c3)nc12 [Example 58] | 35%
CCCOc1nc(Cn2ccnc2)nc2oc(-c3cccc(F)c3)nc12 [Example 61] | 76%
CCCOc1nc(Cc2ccc(Cl)cc2)nc2oc(-c3ccc(N(C)C)c(C)c3)nc12 [Example 178] | 91%
CCCOc1nc(CN2CCC(F)(F)CC2)nc2oc(-c3ccc(Cl)c(Cl)c3)nc12 [Example 79] | 111%
CCCOc1nc(CN2CCC(F)(F)CC2)nc2oc(-c3cc(F)cc(F)c3)nc12 [Example 25] | 117%
CCCOc1nc(Cc2ccc(Cl)cc2)nc2oc(-c3cc(N)ccc3F)nc12 [Example 135] | 117%

Second part, the compound after the results:

% Activation (Edg-1 receptor activation in percent of the activation by 10 μM S1P) | SMILES
105% | CCOc1nc(Cc2ccc(Cl)cc2)nc2oc(-c3cc(C)c(OCCCS(=O)(=O)c4nnc(C(C)(C)C)[nH]4)c(C)c3)nc12 [Example 278]
97% | CCOc1nc(Cc2ccc(Cl)cc2)nc2oc(-c3cc(C)c(OCC4(CO)COC4)c(C)c3)nc12 [Example 301]
115% | CC(C)Oc1nc(CN2CCOCC2)nc2oc(-c3cccc(F)c3)nc12 [Example 205]
122% | CCOc1nc(Cc2ccc(Cl)cc2)nc2oc(-c3cc(C)c(OCC(O)CNCc4ccccc4)c(C)c3)nc12 (stereo not drawn) [Example 257]
116% | CCOc1nc(Cc2ccc(Cl)cc2)nc2oc(-c3cc(C)c(OCC(O)CS(=O)(=O)c4ncn[nH]4)c(C)c3)nc12 (stereo not drawn) [Example 291]
101% | CCCOc1nc(Cc2ccccc2)nc2oc(-c3cccc(OCCO)c3)nc12 [Example 213]
106% | CCOc1nc(Cc2ccc(Cl)cc2)nc2oc(-c3cc(C)c(OCC(=O)NCCN4CCOCC4)c(C)c3)nc12 [Example 234]
49% | CCOc1nc(Cc2ccc(Cl)cc2)nc2oc(-c3ccc(OC)c(F)c3)nc12 [Example 277]
92% | CCCOc1nc(Cc2ccc(Cl)cc2)nc2oc(-c3cc(C)c(OCCCNCCS(N)(=O)=O)c(C)c3)nc12 [Example 223]
79% | CCOc1nc(Cc2ccc(Cl)cc2)nc2oc(-c3cc(C)c(OCC(=O)O)c(C)c3)nc12 [Example 253]
107% | CCCOc1nc(Cc2ccc(Cl)cc2)nc2oc(-c3ccc(OCC(=O)O)c(Cl)c3)nc12 [Example 219]
55% | CCOc1nc(Cc2ccc(Cl)cc2)nc2oc(-c3cc(C)c(OCC(O)CN(C)C)c(C)c3)nc12 (stereo not drawn) [Example 264]
108% | CCOc1nc(Cc2ccc(Cl)cc2)nc2oc(-c3cc(C)c(OCC(O)CSc4nnc(C(C)(C)C)[nH]4)c(C)c3)nc12 (stereo not drawn) [Example 282]
100% | CCCOc1nc(Cc2ccc(Cl)cc2)nc2oc(-c3cc(C)c(OCCCNCCO)c(C)c3)nc12 [Example 225]
104% | CCOc1nc(CC2CCCCC2)nc2oc(-c3cccc(C)c3)nc12 [Example 309]
144% | CCCOc1nc(Cc2ccc(Cl)cc2)nc2oc(-c3cc(C)c(OCC(=O)N4CCC[C@H]4C(=O)O)c(C)c3)nc12 [Example 245]
67% | CCCOc1nc(Cc2ccc(Cl)cc2)nc2oc(-c3cc(C)c(OCC(O)CNC4CCN(CC(C)C)CC4)c(C)c3)nc12 (stereo not drawn) [Example 206]
111% | CCOc1nc(Cc2ccc(Cl)cc2)nc2oc(-c3cc(C)c(OCC(=O)N4CC(C(=O)OC)C4)c(C)c3)nc12 [Example 246]

Same assay, conditions: example compound at 10 μM; relative to 10 μM S1P; GTP-γ-S SPA, human Edg-1 membranes; read-out: % Activation (Edg-1 receptor activation in percent of the activation by 10 μM S1P)

activation at 10 µM | SMILES
74% | CCCOc1nc(Cc2ccc(Cl)cc2)nc2oc(-c3cc(C)c(O)c(C)c3)nc12 [Example 17, 4-[5-(4-Chloro-benzyl)-7-propoxy-oxazolo[5,4-d]pyrimidin-2-yl]-2,6-dimethyl-phenol]
71% | CCCOc1nc(Cc2ccc(Cl)cc2)nc2oc(-c3cccc(N)c3)nc12 [Example 21, 3-[5-(4-Chloro-benzyl)-7-propoxy-oxazolo[5,4-d]pyrimidin-2-yl]-phenylamine]
66% | CCCOc1nc(C2(c3ccc(Cl)cc3)CC2)nc2oc(-c3cccc(C)c3)nc12 [Example 10, 5-[1-(4-Chloro-phenyl]-cyclopropyl]-7-propoxy-2-(3-methyl-phenyl)-oxazolo[5,4-d]pyrimidine]
84% | CCCOc1nc(Cc2ccc(Cl)cc2)nc2oc(-c3cc(C)c(OCC(O)CNC(=O)c4ccccc4)c(C)c3)nc12 (stereo not drawn) [Example 195, N-(3-{4-[5-(4-Chloro-benzyl)-7-propoxy-oxazolo[5,4-d]pyrimidin-2-yl]-2,6-dimethyl-phenoxy}-2-hydroxy-propyl)-benzamide]
111% | CCCOc1nc(Cc2ccc(Cl)cc2)nc2oc(-c3cc(C)c(OCC(=O)O)c(C)c3)nc12 [Example 198, {4-[5-(4-Chloro-benzyl)-7-propoxy-oxazolo[5,4-d]pyrimidin-2-yl]-2,6-dimethyl-phenoxy}-acetic acid]
